Data as given in patent US20250049871A1, “PHARMACEUTICAL COMBINATION FOR TREATING OR PREVENTING EPILEPSY AND THE USE THEREOF” (priority 2023, published 2025).

Experiments:
Type in all cases: in vivo, Sprague-Dawley rats
[1] = system: cerebral cortex and hippocampus CA1/CA3 nerve cells; assay: Nissl staining of brain tissue after KA injection; conditions: pretreatment; three days after KA 15 mg/kg i.p.; p<0.05 vs KA group
Protocol: (§1) Continuing from Example 3, the experimental animals in each group were sacrificed three days after intraperitoneal injection of KA (15 mg/kg), and the brain tissues were taken out for sectioning and other relevant experimental analysis.

[2] = system: CA1/CA3 degenerative cells in the cerebral cortex and hippocampus; assay: Fluoro-Jade B (FJB) staining of brain tissue after KA injection; conditions: pretreatment; three days after KA 15 mg/kg i.p.; p<0.05 vs KA group
Protocol: as §1
This phenomenon can also be reduced by the pretreatment with the birch sap extract and betulin (p<0.05; FIGS. 4A and 4B).

KA-induced seizures = assay: kainic acid (KA)-induced epilepsy model in animals, epileptic behavior by Racine scale; conditions: for Death: dead/total rats; for Seizure %: share of rats with seizures; for Seizure stage: then KA 15 mg/kg i.p., Racine scale within 4 hours
Protocol: Male Sprague-Dawley rats (SD rat, 150-200 g) were purchased from BioLASCO (Taiwan) and bred in Fu Jen Laboratory Animal Center. All animal experiments were approved by the IACUC of Fu Jen Catholic University. According to the 3R principles, all experiments were performed to minimize animal suffering and use the minimum number of animals necessary to produce reliable results.
The antiepileptic effect of the birch sap extract was evaluated using kainic acid (KA)-induced epilepsy model in animals. KA is an analogue of glutamate, and injection of KA into rats will increase the release of glutamate and overactivate glutamate receptors, resulting in progressive limbic seizures in rats. This phenomenon leads to increased calcium ions in nerve cells, oxidative stress, and loss of mitochondrial function, resulting in the death of nerve cells in many areas of the brain, especially in the cerebral cortex and hippocampus. In addition, KA-induced neuronal cell death is related to glial cell activation and inflammatory response caused by inflammatory molecules, such as interleukin-1β (IL-1β), interleukin-6 (IL-6), tumor necrosis factor-α (TNF-α), high mobility group Box 1 (HMGB1), interleukin 1 receptor 1 (IL-1R1), and Toll-like receptor-4 (TLR-4).
Epileptic behavioral expressions were analyzed within 4 hours after intraperitoneal injection of KA in rats.
Sprague-Dawley rats were divided into the following groups according to the administration of different test substances: • 1. Negative control group: normal saline • 2. KA group: 15 mg/kg/i.p./single dose of kainic acid (KA) • 3. Low-dose group of birch sap extract: 6 mg/kg of birch sap extract • 4. High-dose group of birch sap extract: 10 mg/kg of birch sap extract • 5. High-dose group of antiepileptic drug: 100 mg/kg of carbamazepine (CBZ) • 6. Antiepileptic pharmaceutical combination group: 6 mg/kg of birch sap extract and 50 mg/kg of CBZ • 7. Low-dose group of antiepileptic drug: 50 mg/kg of CBZ
The control group, birch sap extract groups, antiepileptic drug groups, and antiepileptic pharmaceutical combination group were fed with normal saline, birch sap extract and/or CBZ through feeding tubes at regular intervals every day. One week later, except for the negative control group, rats in each group were intraperitoneally injected with KA (15 mg/kg/i.p./single dose), and the dose of KA injection was based on the previous study. The epileptic behavior of rats was analyzed according to Racine scale (1972) within 4 hours after intraperitoneal injection of KA.

Structure (SMILES) | number of neurocytes in cerebral cortex and hippocampus CA1/CA3 (Nissl staining) [1] | number of CA1/CA3 degenerative cells in the cerebral cortex and hippocampus (FJB staining) [2] | Death (KA-induced seizures; CBZ 50 mg/kg + KA) | Latency to first seizure (KA-induced seizures; CBZ 50 mg/kg + KA, mean ± SEM) | Seizure % (KA-induced seizures; CBZ 50 mg/kg + KA) | Seizure stage (KA-induced seizures; CBZ 50 mg/kg oral daily for one week, mean ± SEM) | Latency to first seizure (KA-induced seizures; CBZ 100 mg/kg + KA) | Death (KA-induced seizures; CBZ 100 mg/kg + KA) | Seizure % (KA-induced seizures; CBZ 100 mg/kg + KA) | Seizure stage (KA-induced seizures; CBZ 100 mg/kg oral daily for one week, mean ± SEM) | time and severity of seizures compared with the KA group (KA-induced seizures; low-dose group of antiepileptic drug, CBZ 50 mg/kg)
C=C(C)[C@@H]1CC[C@]2(CO)CC[C@]3(C)[C@H](CC[C@@H]4[C@@]5(C)CC[C@H](O)C(C)(C)[C@@H]5CC[C@]43C)[C@@H]12 [betulin] | reduce the decrease in the number of neurocytes | reduced |  |  |  |  |  |  |  |  | 
NC(=O)N1c2ccccc2C=Cc2ccccc21 [CBZ, carbamazepine] |  |  | 0/3 | 89 ± 17 min | 66% | 3.6 ± 0.3 | 140 min | 1/11 | 10% | 0.9 ± 0.5 | not statistically different
